Test results published in patent US20250179059A1 (The Regents of the University of California, priority 2021, published 2025).
Where two headings read alike, the source gives them in different places.

What was measured:
[1] = tested on: human SKM-1 acute myeloid leukemia cells; assay: SKM-1 antiproliferation cell-based assay (ATPlite); settings: Homo sapiens
Outline: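 Log-phase cells in RPMI 1640/15% FBS were seeded at 34722 cells/mL and exposed for 4 days to nine-concentration DMSO serial dilutions in triplicate. Viability was read as ATP luminescence (ATPlite 1step), and IC50 values came from variable-slope non-linear regression.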

[2] = target: T1, human BRD4 bromodomain II (Homo sapiens, UniProt O60885); assay: Bromodomain binding assay (AlphaScreen), BRD4 BDII
T1 construct: human BRD4 bromodomain II [based on Genbank NM_058243, residues 349-460]; host or cells: E. coli
Outline: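 AlphaScreen competition: His6-BRD4 BDI (aa 44-170) or BDII (aa 349-460) vs biotin-H4(1-21) K5/K8/K12/K16Ac peptide; Ni-chelate acceptor/streptavidin donor beads. HEPES pH 7.5, NaCl, CHAPS, BSA, 1% DMSO; RT. 10-pt 3-fold titration, % peptide binding fitted → IC50.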

[3] = SKM-1, 96 h, SKM-1 antiproliferation assay, 4 days, Table C2
[4] = AlphaScreen assay, Table C2, read-out: BRD4 BDII IC50
[5] = SKM-1, SKM-1 antiproliferation assay
[6] = BRD4 BDII AlphaScreen assay, read-out: BRD4 BD2 IC50

| GI50 [1, 3] [nM] | IC50 [2, 4] [nM] | GI50 [1, 5] [nM] | IC50 [2, 6] [nM] | SMILES |
| --- | --- | --- | --- | --- |
| 0.3 to 30 | 0.01 to 1 | – | – | CN1CCCC12CCCN(c1cc(-c3cc(F)cc(-c4ccc(-n5ccn(C)c5=O)c(Cl)c4)c3O)ccn1)C2 (stereo not shown) [Example 695, 1-(3-chloro-5′-fluoro-2′-hydroxy-3′-(2-(1-methyl-1,7-diazaspiro[4.5]decan-7-yl)pyridin-4-yl)-[1,1′-biphenyl]-4-yl)-3-methyl-1H-imidazol-2(3H)-one] |
| 0.3 to 30 | 0.01 to 1 | – | – | Cn1ccn(-c2ccc(-c3cc(F)cc(-c4cncc(N5CC[C@@](C)(N)C5)c4)c3O)cc2Cl)c1=O [Example 742, (R)-1-(3′-(5-(3-amino-3-methylpyrrolidin-1-yl)pyridin-3-yl)-3-chloro-5′-fluoro-2′-hydroxy-[1,1′-biphenyl]-4-yl)-3-methyl-1H-imidazol-2(3H)-one] |
| 30 to 300 | 0.01 to 1 | – | – | Cn1ccn(-c2ccc(-c3cc(F)cc(-c4ccnc(N5CCC6(CCCO6)C5)c4)c3O)cc2Cl)c1=O (stereo not shown) [Example 683, 1-(3′-(2-(1-oxa-7-azaspiro[4.4]nonan-7-yl)pyridin-4-yl)-3-chloro-5′-fluoro-2′-hydroxy-[1,1′-biphenyl]-4-yl)-3-methyl-1H-imidazol-2(3H)-one] |
| 300 to 3000 | > 100 | – | – | Cc1cc(-c2cc(F)cc(-c3ccnc(N4CCNCC4)c3)c2O)cc(Cl)c1N1CCCC1=O [Example 386, 1-(3-chloro-5′-fluoro-2′-hydroxy-5-methyl-3′-(2-(piperazin-1-yl)pyridin-4-yl)-[1,1′-biphenyl]-4-yl)pyrrolidin-2-one] |
| 0.3 to 30 | 1 to 10 | – | – | Cn1ccn(-c2ccc(-c3cc(F)cc(-c4ccnc(N5CC(C)(O)C6(CC6)C5)c4)c3O)cc2Cl)c1=O (stereo not shown) [Example 779, 1-(3-chloro-5′-fluoro-2′-hydroxy-3′-(2-(7-hydroxy-7-methyl-5-azaspiro[2.4]heptan-5-yl)pyridin-4-yl)-[1,1′-biphenyl]-4-yl)-3-methyl-1H-imidazol-2(3H)-one] |
| – | – | 0.3 to 30 | 0.01 to 1 | COc1ncc(-c2nc(C)cc(-c3ccc(-n4ccn(C)c4=O)c(Cl)c3)c2O)cc1N1CCC2(CCN2C(C)C)C1 (stereo not shown) [Example 977, 1-(2-chloro-4-(3-hydroxy-5′-(1-isopropyl-1,6-diazaspiro[3.4]octan-6-yl)-6′-methoxy-6-methyl-[2,3′-bipyridin]-4-yl)phenyl)-3-methyl-1H-imidazol-2(3H)-one] |
| 0.3 to 30 | 0.01 to 1 | – | – | C[C@@H]1CN(c2cc(-c3cc(F)cc(-c4ccc(-n5ccn(C)c5=O)c(Cl)c4)c3O)cc3c2ccn3C)CCN1 [Example 579, (R)-1-(3-chloro-5′-fluoro-2′-hydroxy-3′-(1-methyl-4-(3-methylpiperazin-1-yl)-1H-indol-6-yl)-[1,1′-biphenyl]-4-yl)-3-methyl-1H-imdazol-2(3H)-one] |
| – | – | 0.3 to 30 | 1 to 10 | Cc1cc(-c2ccc(-n3ccn(C)c3=O)c(Cl)c2)c(O)c(-c2cnc(C)c(N3CCN(C(C)(C)C)CC3)c2)n1 [Example 961, 1-(4-(5′-(4-(tert-butyl)piperazin-1-yl)-3-hydroxy-6,6′-dimethyl-[2,3′-bipyridin]-4-yl)-2-chlorophenyl)-3-methyl-1H-imidazol-2(3H)-one] |
| – | – | 300 to 3000 | 10 to 100 | Cn1ccn(-c2ccc(-c3cc(F)cc(-c4cccc(-c5ccc(CO)cc5)c4)c3O)cc2Cl)c1=O [Example 858] |
| 0.3 to 30 | 0.01 to 1 | – | – | Cn1ccn(-c2ccc(-c3cc(F)cc(-c4ccnc(N5CCN(C6CCOCC6)CC5)c4)c3O)cc2Cl)c1=O [Example 634, 1-(3-chloro-5′-fluoro-2′-hydroxy-3′-(2-(4-(tetrahydro-2H-pyran-4-yl)piperazin-1-yl)pyridin-4-yl)-[1,1′-biphenyl]-4-yl)-3-methyl-1H-imidazol-2(3H)-one] |
| – | – | 30 to 300 | 1 to 10 | Cc1ncc(-c2cc(F)cc(-c3ccc(-n4ccn(C)c4=O)c(Cl)c3)c2O)cc1N1CC(F)(F)[C@@](C)(O)C1 [Example 897] |
